Measurements from patent US10670605B2, “Cysteine reactive probes and uses thereof” (The Scripps Research Institute, priority 2015, dated 2020).

Assays:
Assay type in all cases: binding
pro-CASP8 = target: T1, pro-CASP8 (Homo sapiens, UniProt Q14790, D374A/D384A); experiment: Click probe 61 labeling of pro-CASP8 and its competition; conditions: 300 nM protein in MDA-MB-231 lysate; read-out: apparent IC50 for blockade of 61 labeling of pro-CASP8
T1 construct: a truncated CASP8 (residues 217-479) without the CARD domain; His6 (C); made in house; host or cells: E. coli BL21(DE3)pLysS
T1 sequence (Q14790 217-479 D374A/D384A): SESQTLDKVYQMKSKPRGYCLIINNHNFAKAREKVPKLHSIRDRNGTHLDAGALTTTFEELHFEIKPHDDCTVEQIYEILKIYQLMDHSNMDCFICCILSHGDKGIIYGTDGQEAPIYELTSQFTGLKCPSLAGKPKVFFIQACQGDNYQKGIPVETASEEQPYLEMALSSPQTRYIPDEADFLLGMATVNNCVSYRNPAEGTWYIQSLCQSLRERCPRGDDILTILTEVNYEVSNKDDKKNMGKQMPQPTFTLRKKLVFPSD

pro-CASP10 = pro-CASP10 (Homo sapiens, UniProt Q92851); experiment: Blockade of probe 61 labeling of pro-CASP10
Chain of pro-CASP10 (Q92851 220-521): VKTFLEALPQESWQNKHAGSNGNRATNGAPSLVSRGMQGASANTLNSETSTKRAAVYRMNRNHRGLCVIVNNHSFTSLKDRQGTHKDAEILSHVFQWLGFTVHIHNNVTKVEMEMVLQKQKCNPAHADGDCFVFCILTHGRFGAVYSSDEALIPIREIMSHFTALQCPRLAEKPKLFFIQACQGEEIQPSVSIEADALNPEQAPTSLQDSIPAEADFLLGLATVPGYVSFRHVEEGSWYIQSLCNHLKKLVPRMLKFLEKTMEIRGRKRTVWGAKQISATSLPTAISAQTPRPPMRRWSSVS

IMPDH2 (C140) = target: T2, IMPDH2 (C140) (Homo sapiens, UniProt P12268); experiment: Click probe 18 labeling of recombinant IMPDH2 and its competition; conditions: for inhibition of 18 labeling of IMPDH2 by nucleotides: 500 μM of each nucleotide
T2 construct: Full length cDNAs encoding for IDH1 (Open Biosystems, Clone ID: 3880331) and IMPDH2 (Open Biosystems, Clone ID: 3447994); His6 (C); made in house; host or cells: E. coli BL21(DE3)

IC50 (pro-CASP8)	activity against CASP10 (in words) (pro-CASP10)	inhibition of 18 labeling of IMPDH2 by nucleotides (IMPDH2 (C140))	SMILES	IC50 (IMPDH2 (C140); probe 18 25 μM, ATP 15 min pre-incubation, read-out: IC50 for blockade of 18 labeling of IMPDH2)
15 µM	inactive against CASP10	–	O=C(c1ccc(N2CCOCC2)cc1)N1CCC[C@H](N(C(=O)CCl)c2ccccc2)C1 [63-S]	–
–	–	inhibited	Nc1ncnc2c1ncn2[C@@H]1O[C@H](COP(=O)(O)O)[C@@H](O)[C@H]1O [AMP]	–
–	–	inhibited	Nc1nc2c(ncn2[C@@H]2O[C@H](COP(=O)(O)OP(=O)(O)OP(=O)(O)O)[C@@H](O)[C@H]2O)c(=O)[nH]1 [GTP]	–

SMILES	IC50 (pro-CASP8)	activity against CASP10 (in words) (pro-CASP10)	inhibition of 18 labeling of IMPDH2 by nucleotides (IMPDH2 (C140))	IC50 (IMPDH2 (C140); probe 18 25 μM, ATP 15 min pre-incubation, read-out: IC50 for blockade of 18 labeling of IMPDH2)
Nc1ncnc2c1ncn2[C@@H]1O[C@H](COP(=O)(O)OP(=O)(O)OP(=O)(O)O)[C@@H](O)[C@H]1O [ATP]	–	–	inhibited	45 µM
